Results reported in the Kinase Knowledgebase extract (Sharma et al. 2016).
pIC50: −log10 of the molar value.

Biological target: MAPK14 (UniProt Q16539)
Assay: CSBP Binding Inhibition

Sequence of MAPK14 (Q16539 whole entry, looked up): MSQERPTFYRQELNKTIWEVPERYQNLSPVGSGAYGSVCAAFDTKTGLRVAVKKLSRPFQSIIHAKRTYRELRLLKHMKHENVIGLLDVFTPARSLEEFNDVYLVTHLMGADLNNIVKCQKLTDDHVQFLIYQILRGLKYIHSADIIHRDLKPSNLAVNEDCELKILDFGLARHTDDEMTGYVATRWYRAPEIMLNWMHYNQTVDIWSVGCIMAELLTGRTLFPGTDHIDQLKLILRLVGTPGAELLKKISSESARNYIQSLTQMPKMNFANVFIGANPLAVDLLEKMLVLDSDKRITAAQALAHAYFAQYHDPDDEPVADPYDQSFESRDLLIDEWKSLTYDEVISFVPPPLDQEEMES

Question: With `O=C1CCC(n2cnc(-c3ccc(F)cc3)c2-c2ccnc(O)n2)CC1` as the compound, how does the pIC50 read?
Answer: > 4.30

Question: How did the pIC50 turn out when `COc1nccc(-c2c(-c3ccc(F)cc3)ncn2[C@H]2CC[C@@](C)(O)CC2)n1.COc1nccc(-c2c(-c3ccc(F)cc3)ncn2[C@H]2CC[C@](C)(O)CC2)n1` was run?
Answer: > 4.30

Question: `CC(C)Oc1nccc(-c2c(-c3ccc(F)cc3)ncn2C2CCC(O)CC2)n1` (stereo not given) was tested. Which pIC50 did it give?
Answer: > 4.30

Question: How did the pIC50 turn out when `COc1nccc(-c2c(-c3ccc(F)cc3)ncn2C2CCC(=O)CC2)n1` was run?
Answer: > 4.30

Question: `CSc1nccc(-c2c(-c3ccc(F)cc3)ncn2C2CCC(=O)CC2)n1` was tested. Which pIC50 did it give?
Answer: > 4.30

Question: How did the pIC50 turn out when `CC(C)Oc1nccc(-c2c(-c3ccc(F)cc3)ncn2C2CCC(=O)CC2)n1` was run?
Answer: > 4.30

Question: `CSc1nccc(-c2c(-c3ccc(F)cc3)ncn2[C@H]2CC[C@H](O)CC2)n1` was tested. Which pIC50 did it give?
Answer: > 4.30

Biological target: MAPK14 (UniProt Q16539)
Assay: CSBP Kinase Inhibition

Question: `COc1nccc(-c2c(-c3ccc(F)cc3)ncn2[C@H]2CC[C@H](OC3CCCCO3)CC2)n1` (stereo not given in full) was tested. Which pIC50 did it give?
Answer: > 4.30

Question: With `COc1nccc(-c2c(-c3ccc(F)cc3)ncn2[C@H]2CC[C@H](N)CC2)n1` as the compound, how does the pIC50 read?
Answer: > 4.30

Question: `COc1nccc(-c2c(-c3ccc(F)cc3)ncn2[C@H]2CC[C@@H](N)CC2)n1` was tested. Which pIC50 did it give?
Answer: > 4.30

Question: `COc1nccc(-c2c(-c3ccc(F)cc3)ncn2[C@H]2CC[C@@](O)(CO)CC2)n1.COc1nccc(-c2c(-c3ccc(F)cc3)ncn2[C@H]2CC[C@](O)(CO)CC2)n1` was tested. Which pIC50 did it give?
Answer: > 4.30

Question: With `CCCC(=O)O[C@H]1CC[C@H](n2cnc(-c3ccc(F)cc3)c2-c2ccnc(OC)n2)CC1` as the compound, how does the pIC50 read?
Answer: > 4.30

Question: `COc1nccc(-c2c(-c3ccc(F)cc3)ncn2[C@H]2CC[C@@](C)(O)CC2)n1` was tested. Which pIC50 did it give?
Answer: > 4.30

Question: How did the pIC50 turn out when `Oc1nccc(-c2c(-c3ccc(F)cc3)ncn2C2CCC(O)CC2)n1` (stereo not given) was run?
Answer: > 4.30

Question: With `COc1nccc(-c2c(-c3ccc(F)cc3)ncn2[C@H]2CC[C@](C)(O)CC2)n1` as the compound, how does the pIC50 read?
Answer: > 4.30
